# Data taken from patent US8835454B2, “Fused bicyclic diamine derivatives as HIV attachment inhibitors” (priority 2011, dated 2014).
# Like-named read-outs stand apart in the source and are kept apart here.
# Test system: HIV-1 LAI envelope single-round infectious reporter virus
# Experiment: Single-round infectious luciferase reporter virus infection of MT2 cells (HIV-1 LAI envelope)
# Format: cell-based
# Details: Human immunodeficiency virus 1, MT2, 72 h
# Excerpt: Human embryonic Kidney cell line, 293T (HEK 293T), was propagated in Dulbecco's Modified Eagle Medium (Invitrogen, Carlsbad, Calif.) containing 10% fetal Bovine serum (FBS, Sigma, St. Louis, Mo.). The human T-cell leukemia cell MT2 (AIDS Research and Reference Reagent Program, Cat. 237) was propagated in RPMI 1640 (Invitrogen, Carlsbad, Calif.) containing 10% fetal bovine serum (FBS, Hyclone, Logan, Utah)
# Single-round infectious reporter virus was produced by co-transfecting HEK 293T cells with plasmide expressing the HIV-1 LAI envelope along with a plasmid containing an HIV-1 LAI proviral cDNA with the envelope gene replaced by a firefly luciferase reporter gene (Chen et al, Ref 41). Transfections were performed using lipofectAMINE PLUS reagent as described by the manufacturer (Invitrogen, Carlsbad, Calif.).
# • 1. MT2 cells were plated in black, 384 well plates at a cell density of 5×10^3 cells per well in 25 μl RPMI 1640 containing 10% FBS. • 2. Compound (diluted in dimethylsulfoxide and growth medium) was added to cells at 12.5 μl/well, so that the final assay concentration would be ≦50 nM. • 3. 12.5 μl of single-round infectious reporter virus in Dulbecco's Modified Eagle Medium was added to the plated cells and compound at an approximate multiplicity of infection (MOI) of 0.01, resulting in a final volume of 50 μl per well. • 4. Virus-infected cells were incubated at 37 degrees Celsius, in a CO2 incubator, and harvested 72 h after infection. • 5. Viral infection was monitored by measuring luciferase expression in the infected cells using a luciferase reporter gene assay kit (Steady-Glo, Promega, Madison, Wis.) as described by the manufacturer. Luciferase activity was then quantified by measuring luminescence using an EnVision Multilabel Plate Readers (PerkinElmer, Waltham, Mass.). • 6. The percent inhibition for each compound was calculated by quantifying the level of luciferase expression in cells infected in the presence of each compound as a percentage of that observed for cells infected in the absence of compound and subtracting such a determined value from 100. • 7. An EC50 provides a method for comparing the antiviral potency of the compounds of this disclosure. The effective concentration for fifty percent inhibition (EC50) was calculated with the Microsoft Excel Xlfit curve fitting software. For each compound, curves were generated from percent inhibition calculated at 10 different concentrations by using a four parameter logistic model (model 205). Table 1 is the key for the data in Table 2.
# [1] = read-out: EC50 Group from Table 1
SMILES,EC50 [1],EC50
"O=C(C(=O)N1CC2CN(c3nnnn3-c3ccccc3)CC2C1)c1c[nH]c2c(-n3ccnn3)ncc(F)c12 (stereo not shown) [Compound 1001, 1-(4-fluoro-7-(1H-1,2,3-triazol-1-yl)-1H-pyrrolo[2,3-c]pyridin-3-yl)-2-(5-(1-phenyl-1H-tetrazol-5-yl)hexahydropyrrolo[3,4-c]pyrrol-2(1H)-yl)ethane-1,2-dione]",< 500 nM,
"COc1cnc(-n2cnc(C)n2)c2[nH]cc(C(=O)C(=O)N3CC4CN(c5nnnn5-c5ccccc5)CC4C3)c12 (stereo not shown) [Compound 1002, 1-(4-methoxy-7-(3-methyl-1H-1,2,4-triazol-1-yl)-1H-pyrrolo[2,3-c]pyridin-3-yl)-2-(5-(1-phenyl-1H-tetrazol-5-yl)hexahydropyrrolo[3,4-c]pyrrol-2(1H)-yl)ethane-1,2-dione]",< 500 nM,1.41 nM
COc1cnc(-n2cnc(C)n2)c2[nH]cc(C(=O)C(=O)N3CC4CN(Cc5ccccc5)CC4C3)c12 (stereo not shown) [Compound 2001],< 500 nM,
O=C(C(=O)N1CC2CN(Cc3ccccc3)CC2C1)c1c[nH]c2c(-n3ccnn3)ncc(F)c12 (stereo not shown) [Compound 2003],> 500 nM,
O=C(C(=O)N1CC2CN(C(=O)c3ccccc3)CC2C1)c1c[nH]c2c(-n3ccnn3)ncc(F)c12 (stereo not shown) [Compound 2005],< 500 nM,
COc1cnc(-n2cnc(C)n2)c2[nH]cc(C(=O)C(=O)N3CC4CN(C(=O)c5ccccc5)CC4C3)c12 (stereo not shown) [Compound 2006],< 500 nM,0.68 nM
"CN(C)C(=O)N1CC2CN(C(=O)C(=O)c3c[nH]c4c(-n5ccnn5)ncc(F)c34)CC2C1 (stereo not shown) [Compound 3001, 5-(2-(4-fluoro-7-(1H-1,2,3-triazol-1-yl)-1H-pyrrolo[2,3-c]pyridin-3-yl)-2-oxoacetyl)-N,N-dimethylhexahydropyrrolo[3,4-c]pyrrole-2(1H)-carboxamide]",< 500 nM,
"COc1cnc(-n2cnc(C)n2)c2[nH]cc(C(=O)C(=O)N3CC4CN(C(=O)N(C)C)CC4C3)c12 (stereo not shown) [Compound 3002, 5-(2-(4-methoxy-7-(3-methyl-1H-1,2,4-triazol-1-yl)-1H-pyrrolo[2,3-c]pyridin-3-yl)-2-oxoacetyl)-N,N-dimethylhexahydropyrrolo[3,4-c]pyrrole-2(1H)-carboxamide]",< 500 nM,
